Measurements from patent US10308632B2, “Antifungal compounds and processes for making” (VPS-3, Inc., priority 2015, dated 2019).

Assays:
Assay type in all cases: physicochemical
[1] = Gravimetric/dynamic vapor sorption (GVS/DVS) moisture sorption isotherm; details: for GVS hysteresis: 0-90% RH range; for moisture uptake by GVS: at 90% RH; for GVS water uptake: over 0-90% RH range, 25° C.; for XRPD post GVS: sample re-analysed by XRPD after isotherm
Description: Gravimetric Vapor Sorption (GVS) isotherms were obtained using a SMS DVS Intrinsic moisture sorption analyser, controlled by DVS Intrinsic Control software v1.0.1.2 (or v 1.0.1.3). The sample temperature was maintained at 25° C. by the instrument controls. The humidity was controlled by mixing streams of dry and wet nitrogen, with a total flow rate of 200 mL/min The relative humidity was measured by a calibrated Rotronic probe (dynamic range of 1.0-100% RH), located near the sample. The weight change, (mass relaxation) of the sample as a function of % RH was constantly monitored by the microbalance (accuracy ±0.005 mg). Typically. 10-15 mg of sample was placed in a tared mesh stainless steel basket under ambient conditions. The sample was loaded and unloaded at 40% RH and 25° C. (typical room conditions). A moisture sorption isotherm was performed as outlined below (2 scans giving 1 complete cycle). The standard isotherm was performed at 25° C. at 10% RH intervals over a 0-90% RH range. Data analysis was undertaken in Microsoft Excel using DVS Analysis Suite v6.2 (or 6.1 or 6.0). [table] The sample was recovered after completion of the isotherm and re-analysed by XRPD.

[2] = XRPD stability after 7 days storage at elevated humidity
Description: X-Ray Powder Diffraction patterns were collected on a Bruker AXS C2 GADDS diffractometer using Cu Kα radiation (40 kV, 40 mA), automated XYZ stage, laser video microscope for auto-sample positioning and a HiStar 2-dimensional area detector. X-ray optics consists of a single Göbel multilayer mirror coupled with a pinhole collimator of 0.3 mm. A weekly performance check is carried out using a certified standard NIST 1976 Corundum (flat plate). The beam divergence, i.e. the effective size of the X-ray beam on the sample, was approximately 4 mm. A Θ-Θ continuous scan mode was employed with a sample—detector distance of 20 cm which gives an effective […] of 3.2°-29.7°. Typically the sample would be exposed to the X-ray beam for 120 seconds. The software used for data collection was GADDS for XP/2000 4.1.43 and the data were analysed and presented using Diffrac Plus EVA v13.0.0.2 or v15.0.0.0. Samples run under ambient conditions were prepared as flat plate specimens using powder as received without grinding. Approximately 1-2 mg of the sample was lightly pressed on a glass slide to obtain a flat surface. Samples run under non-ambient conditions were mounted on a silicon wafer with heat-conducting compound. The sample was then heated to the appropriate temperature at 30° C./min and subsequently held isothermally for 1 minute before data collection was initiated. X-Ray Powder Diffraction patterns were also collected on a Bruker D8 diffractometer using Cu Kα radiation (40 kV, 40 mA), θ-2θ goniometer, and divergence of V4 and receiving slits, a Ge monochromator and a Lynxeye detector. The instrument is performance checked using a certified Corundum standard (NIST 1976). The software used for data collection was Diffrac Plus XRD Commander v2.6.1 and the data were analysed and presented using Diffrac Plus EVA v15.0.0.0. Samples were run under ambient conditions as flat plate specimens using powder as received. The sample was gently packed into a cavity cut into polished, zero-background (510) silicon wafer. The sample was rotated in its own plane during analysis. The details of the data collection are: Angular range: 2 to 42° 2 θ; Step size: 0.05° 2θ; Collection time: 0.5 s/step.

[3] = Competitive slurry experiments of Form 1 and Form 2 (thermodynamic stability); details: temperature range investigated (5° C., 25° C., 50° C.)
Description: The melt of Form 1 of compound 5 was determined by DSC to be at 129.0° C. with an enthalpy of −46 J/g. A melt endotherm was not determined for Form 2 as it transforms to Form 1 upon heating at different rates. […] These experiments were performed in IPA, ethanol and toluene. To conduct these experiments a solid mixture of Forms 1 and 2 (<18 mg per sample) was suspended in the corresponding saturated solution of compound 5 and stirred at the desired temperature. Saturated solutions of compound 5 were prepared at 50° C. by dissolving 40 mg, 60 mg and 200 mg of sample in 1.4 mL of IPA, 0.8 mL of ethanol and 0.8 mL of toluene, respectively. The slurries were filtered, air-dried and analyzed by XRPD after stirring for up to 10 days at the desired temperature. […] All the experiments except for that performed in IPA at 5° C. gave pure Form 1.

[4] = Thermo-gravimetric analysis (TGA), decomposition onset; details: heated at 10° C./min
Description: Thermo-gravimetric analysis (TGA) data were collected on a TA Instruments Discovery TGA, equipped with a 25 position auto-sampler. The instrument was temperature calibrated using certified alumel and nickel. Typically, 3-10 mg of each sample was loaded onto a pre-tared aluminium pan and heated at 10° C./min from ambient temperature to 350° C. A nitrogen purge at 25 mL/min was maintained over the sample. The instrument control and data analysis software was TRIOS v3.2.0.3877.

[5] = Variable temperature XRPD (VT-XRPD), polymorph conversion; details: upon heating
Description: X-Ray Powder Diffraction patterns were collected on a Bruker AXS C2 GADDS diffractometer using Cu Kα radiation (40 kV, 40 mA), automated XYZ stage, laser video microscope for auto-sample positioning and a HiStar 2-dimensional area detector. X-ray optics consists of a single Göbel multilayer mirror coupled with a pinhole collimator of 0.3 mm. A weekly performance check is carried out using a certified standard NIST 1976 Corundum (flat plate). The beam divergence, i.e. the effective size of the X-ray beam on the sample, was approximately 4 mm. A Θ-Θ continuous scan mode was employed with a sample—detector distance of 20 cm which gives an effective […] of 3.2°-29.7°. Typically the sample would be exposed to the X-ray beam for 120 seconds. The software used for data collection was GADDS for XP/2000 4.1.43 and the data were analysed and presented using Diffrac Plus EVA v13.0.0.2 or v15.0.0.0. Samples run under ambient conditions were prepared as flat plate specimens using powder as received without grinding. Approximately 1-2 mg of the sample was lightly pressed on a glass slide to obtain a flat surface. Samples run under non-ambient conditions were mounted on a silicon wafer with heat-conducting compound. The sample was then heated to the appropriate temperature at 30° C./min and subsequently held isothermally for 1 minute before data collection was initiated. […]

| Compound | GVS hysteresis [1] | moisture uptake by GVS [1] [%] | GVS water uptake [1] | XRPD post GVS [1] | XRPD stability post 7 days ([2]; 25° C. & 96% RH) | XRPD stability post 7 days ([2]; 40° C. & 75% RH) | stability after 7 days storage at elevated humidity conditions [2] | thermodynamic stability of the pair Form 1/Form 2 [3] | TGA decomposition onset [4] | VT-XRPD: conversion to Form 1 starts at [5] |
| --- | --- | --- | --- | --- | --- | --- | --- | --- | --- | --- |
| N#Cc1ccc(COc2ccc(C#Cc3ccc(C(F)(F)[C@](O)(Cn4cnnn4)c4ccc(F)cc4F)nc3)cc2)cc1 [Compound 5 (Anhydrous Form 1)] | (slight hysteresis observed) | ~1.3 | ca. 1.3% water uptake over | unchanged | Unchanged by XRPD | Unchanged by XRPD | stable | thermodynamically stable form | Decomposition onset at ~200 °C |  |
| N#Cc1ccc(COc2ccc(C#Cc3ccc(C(F)(F)[C@](O)(Cn4cnnn4)c4ccc(F)cc4F)nc3)cc2)cc1 [Compound 5 (Anhydrous Form 2)] | (no hysteresis observed) | ~0.7 | ca. 0.7% water uptake over | unchanged | Unchanged by XRPD | Unchanged by XRPD | remained stable |  | Decomposition onset at ~200 °C | at 105 °C |
| N#Cc1ccc(COc2ccc(C#Cc3ccc(C(F)(F)[C@](O)(Cn4cnnn4)c4ccc(F)cc4F)nc3)cc2)cc1 [Compound 14] | (no hysteresis observed) | ~1.6 | ca. 1.6% water uptake over | unchanged | Unchanged by XRPD | Unchanged by XRPD | stable |  | Decomposition onset at ~300 °C |  |
